The target of assay [1] is T1, M1 mAChR (Rattus norvegicus, UniProt P08482).
T1 sequence (P08482 1-460): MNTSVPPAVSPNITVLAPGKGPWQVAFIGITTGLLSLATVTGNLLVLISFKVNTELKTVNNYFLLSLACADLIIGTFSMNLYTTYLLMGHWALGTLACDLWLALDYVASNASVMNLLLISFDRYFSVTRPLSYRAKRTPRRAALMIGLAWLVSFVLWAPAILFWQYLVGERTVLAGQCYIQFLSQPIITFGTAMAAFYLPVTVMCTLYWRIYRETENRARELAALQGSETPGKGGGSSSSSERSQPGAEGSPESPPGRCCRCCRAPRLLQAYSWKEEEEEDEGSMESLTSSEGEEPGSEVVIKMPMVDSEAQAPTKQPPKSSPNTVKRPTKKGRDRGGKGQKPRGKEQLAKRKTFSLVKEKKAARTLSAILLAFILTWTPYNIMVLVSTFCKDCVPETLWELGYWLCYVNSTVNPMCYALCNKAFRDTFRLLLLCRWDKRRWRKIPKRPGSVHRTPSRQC
Briefly: biochemical.

Assay [2] has as its system PC12M1 cells. Briefly: Mitochondrial apoptosis pathway, Bax and Bcl-2 immunoreactivity in PC12M1 cells. Set-up: Emax: dose or concentration left out as unconfirmed.
Method: These cells were partially differentiated (2-3 days), as observed under microscope. […] The pellet (rich mitochondrial fraction) was re-suspended with 200 μl Ripa buffer and lysed by rapid passage through a syringe needle (23G) for five to six times. The lysate was then used for further evaluation.
Bands were probed using the Rabbit Bax antibody (1:1000, Cell signaling, Cat. No. 2772) and Rabbit Bcl-2 antibody (1:1000, Cell signaling, Cat. No. 2870) followed by anti rabbit IgG (H&L) HRP (1:5,000, Jackson Immuno Research, 111-035-144).
Assay [3] relates to ERK 1/2 phosphorylation. Briefly: Phospho-p44/42 MAPK (ERK 1/2) detection in PC12M1 cells. Format: cell-based, rat. The conditions noted are these: 3 hours.
In assay [4] the target is T2, M1 mAChR (Homo sapiens, UniProt P11229).
T2 sequence (P11229 1-460): T1 sequence (P08482 1-460) with V5A, S254T, S309P, K320R, G337A, V413I
The assay is described as follows: αAPPs secretion in CHO cells double transfected with human APP695 and human M1 mAChR. Format: cell-based. As for the experimental part:
α-APPs Secretion studies following incubation with the tested compounds were performed as described in Haring, et al. J. Neurochem., 1998, 71:2094-103. […] A day later, cells were washed twice with serum free media, and treated with the test compound at various concentrations ranging from 0.1 nM to 100 μM. […] After 1 hour the conditioned medium was collected to cold Eppendorf tubes, which included a protease inhibitor cocktail (0.1 mM phenylmethylsulphonyl fluoride (PMSF); 5 μg/ml leupeptin; 5 μg/ml pepstatin and 5 units/ml aprotinin) for determining αAPPs release. The protein content of each sample was concentrated using Centricon tubes (Amicon, Beverly, Mass.). […] CHO cells double transfected with human APP695 and M1 mAChR APPs bands were probed using anti-amyloid beta protein (1:1000, monoclonal 6E10 antibody, MAB1560, Chemicon) and peroxidase-linked rabbit anti mouse IgG (1:5,000; Jackson Immuno Research, PA). PC12 cells stably transfected with M1 mAChR APPs bands were probed using the anti-Alzheimer precursor protein A4 (1:4,000; monoclonal 22C11 antibody, Boehringer Mannheim) and the peroxidase-linked rabbit anti mouse IgG (1:20,000; Jackson Immuno Research, PA). Following extensive washout, the membranes were treated with Western Lightning Chemiluminescence Reagent Plus (PerkinElmer Life Sciences, MA) followed by exposure to SuperRX film (Fuji Medical X-ray film, Tokyo, Japan). Quantitative determination of the total APPs bands was performed by Scion Image program (NIH, Bethesda, USA). Samples of control and CCh were assayed in parallel and thus enabled compilation of data from separate experiments.

For assay [5], the target named is T2, M1 mAChR. Briefly: Intracellular Ca2+ mobilization (Fluo-4 NW) in cells stably transfected with M1 mAChR. Format: cell-based. Set-up: expressed in transfected cells. The conditions noted are these: 100 μM; mobilization of intracellular Ca ions. The text has this:
On the day of experiment, cells were fully confluent.
To evaluate selectivity for a subtype of mAChR, in particular the M1 mAChR vs. M3 and MS mAChR, the assays were calibrated using ligands that have a combined activity, e.g. M1 agonistic and M3 antagonistic or M1 agonistic and MS antagonistic profiles, respectively. This can eliminate effects due to different receptor reserves in cell-based assays.

Assay [6] relates to tau protein. Briefly: Tau-1 (unphosphorylated tau) western blot in PC12 cells transfected with M1 mAChR, +Aβ25-35. Format: cell-based, rat. The conditions noted are these: 100 μM-1 nM; Aβ25-35 20 μM.
From the text: Anti-GSK-3 (Santa Cruz Biotechnology) is a phosphorylation-independent monoclonal antibody reactive with both GSK-3α and GSK3β. In the same experiments the status of tau protein phosphorylation was studied using mouse anti Tau-1 monoclonal antibody (Chemicon, CAT number MAB3420), which recognizes an unphosphorylated epitope of tau.

Structures are written as SMILES. Residue numbers refer to the chain shown, from its start. Read-outs that look alike come from different tables or passages of the source.

As for `C[C@@H]1SC2(CCN(C)CC2)CN1C(=O)CCc1c[nH]c2ccccc12` (single isomer, unassigned) [AF710B], the Ki in assay [1] amounted to 0.046 nM; in assay [1] (KH, brucine experiment, without brucine), 0.015 nM; in assay [1] (KH, with brucine 0.1 mM), 0.034 nM; in assay [1] (KL, brucine experiment, without brucine) it was 34000 nM; in assay [1] (KL, with brucine 0.1 mM), 15000 nM. In addition, in assay [2] (PC12M1 cells), the “Bax elevation after NGF deprivation” value is listed as “attenuated Bax elevation”. In assay [2] (PC12M1 cells, Aβ 25-35, 1 nM), the “Bcl-2, maximum effect” value is given as 164±32% of control. For the same compound, in assay [2] (Rattus norvegicus, read-out: Aβ 25-35 induced neurotoxicity expressed as Bax/Bcl2, maximum effect), the Emax is 18%. Further, the “phospho-ERK1/2, compound alone” value in assay [3] is reported as “does not increase”. In addition, the “release of αAPPs” value in assay [4] (CHO cells, 0.1 nM to 1 μM) was “enhanced the release of αAPPs”. Further, the “maximal αAPPs secretion in comparison to untreated control cells” value in assay [4] (doubly-transfected CHO cells, AF710B at 0.01 μM, AF710 at 0.1 μM, AF710A at 1 μM) was found to be 225%. For the same compound, the “M1 agonist at 100 μM vs. carbachol (full muscarinic agonist, 100%)” value in assay [5] is 66%. The “Tau-1 staining decreased by Aβ25-35” value in assay [6] is on record as “restored these effects to control level”.

These data come from patent publication US9034891B2, “Bicyclic heterocyclic spiro compounds” (ISRAEL INSTITUTE FOR BIOLOGICAL RESEARCH, priority 2009, dated 2015).
